# Measured values: PubChem BioAssay AID1259407 (Chemical Carcinogenesis Research Information System (CCRIS), 2018)
# Active and inactive are the calls of the source. How the calls were made is not given here.
# Test system: CCRIS mutagenicity, Ames/micronucleus/aberration tests
# Assay: CCRIS mutagenicity studies
# [1] = Test System: AMES SALMONELLA TYPHIMURIUM, Strain/Indicator: TA98, Metabolic Activation: NONE, Method: STANDARD PLATE
# [2] = Test System: AMES SALMONELLA TYPHIMURIUM, Strain/Indicator: TA100, Metabolic Activation: NONE, Method: STANDARD PLATE
# [3] = Test System: AMES SALMONELLA TYPHIMURIUM, Strain/Indicator: TA1535, Metabolic Activation: NONE, Method: STANDARD PLATE
# [4] = Test System: AMES SALMONELLA TYPHIMURIUM, Strain/Indicator: TA98, Metabolic Activation: NONE, Method: PREINCUBATION
# [5] = Test System: AMES SALMONELLA TYPHIMURIUM, Strain/Indicator: TA100, Metabolic Activation: NONE, Method: PREINCUBATION
# [6] = Test System: AMES SALMONELLA TYPHIMURIUM, Strain/Indicator: TA1535, Metabolic Activation: NONE, Method: PREINCUBATION
smiles,measurement,setting,value
O=[N+]([O-])c1ccc2c([N+](=O)[O-])cc3ccccc3c2c1,mutagenic call,"Test System: AMES SALMONELLA TYPHIMURIUM, Strain/Indicator: TA98(1,8-DNP6), Metabolic Activation: NONE, Method: STANDARD PLATE",active; positive
same,mutagenic call,"Test System: AMES SALMONELLA TYPHIMURIUM, Strain/Indicator: TA98(NR), Metabolic Activation: NONE, Method: STANDARD PLATE",active; positive
same,mutagenic call,[1],active; positive
same,mutagenic call,[2],active; positive
same,mutagenic call,"Test System: AMES SALMONELLA TYPHIMURIUM, Strain/Indicator: YG1021, Metabolic Activation: NONE, Method: STANDARD PLATE",active; positive
same,mutagenic call,"Test System: AMES SALMONELLA TYPHIMURIUM, Strain/Indicator: YG1024, Metabolic Activation: NONE, Method: STANDARD PLATE",active; positive
same,mutagenic call,"Test System: AMES SALMONELLA TYPHIMURIUM, Strain/Indicator: YG1026, Metabolic Activation: NONE, Method: STANDARD PLATE",active; positive
same,mutagenic call,"Test System: AMES SALMONELLA TYPHIMURIUM, Strain/Indicator: YG1029, Metabolic Activation: NONE, Method: STANDARD PLATE",active; positive
CN(C)c1nc(=O)n(C2CCCCC2)c(=O)n1C,mutagenic call,"End Point: In vitro chromosomal aberrations, Test System: Chinese hamster ovary (CHO) cells, Metabolic Activation: None",active; positive
same,mutagenic call,"End Point: In vitro chromosomal aberrations, Test System: Chinese hamster ovary (CHO) cells, Metabolic Activation: S-9",inactive; negative
O=C(c1ccccc1)n1ncc(Cl)c(Cl)c1=O,mutagenic call,[1],inactive; negative
same,mutagenic call,"Test System: AMES SALMONELLA TYPHIMURIUM, Strain/Indicator: TA98, Metabolic Activation: RAT, LIVER, S-9, AROCLOR 1254, Method: STANDARD PLATE",inactive; negative
same,mutagenic call,[2],inactive; negative
same,mutagenic call,"Test System: AMES SALMONELLA TYPHIMURIUM, Strain/Indicator: TA100, Metabolic Activation: RAT, LIVER, S-9, AROCLOR 1254, Method: STANDARD PLATE",inactive; negative
same,mutagenic call,[3],inactive; negative
same,mutagenic call,"Test System: AMES SALMONELLA TYPHIMURIUM, Strain/Indicator: TA1535, Metabolic Activation: RAT, LIVER, S-9, AROCLOR 1254, Method: STANDARD PLATE",inactive; negative
same,mutagenic call,"Test System: AMES SALMONELLA TYPHIMURIUM, Strain/Indicator: TA1537, Metabolic Activation: NONE, Method: STANDARD PLATE",inactive; negative
same,mutagenic call,"Test System: AMES SALMONELLA TYPHIMURIUM, Strain/Indicator: TA1537, Metabolic Activation: RAT, LIVER, S-9, AROCLOR 1254, Method: STANDARD PLATE",inactive; negative
Oc1cccc2c1sc1ccccc12,mutagenic call,"Test System: CHINESE HAMSTER OVARY, Strain/Indicator: CHO-K1-BH4 (HGPRT)/6-THIOGUANINE, Metabolic Activation: RAT, LIVER, S-9, AROCLOR (4%)",active; positive
CC(=O)Nc1cccc(C)c1,mutagenic call,"Test System: AMES SALMONELLA TYPHIMURIUM, Strain/Indicator: TA97, Metabolic Activation: HAMSTER, LIVER, S-9, AROCLOR 1254 (10 OR 30%), Method: PREINCUBATION",inactive; negative
same,mutagenic call,"Test System: AMES SALMONELLA TYPHIMURIUM, Strain/Indicator: TA97, Metabolic Activation: NONE, Method: PREINCUBATION",inactive; negative
same,mutagenic call,"Test System: AMES SALMONELLA TYPHIMURIUM, Strain/Indicator: TA97, Metabolic Activation: RAT, LIVER, S-9, AROCLOR 1254 (10 OR 30%), Method: PREINCUBATION",inactive; negative
same,mutagenic call,"Test System: AMES SALMONELLA TYPHIMURIUM, Strain/Indicator: TA98, Metabolic Activation: HAMSTER, LIVER, S-9, AROCLOR 1254 (10 OR 30%), Method: PREINCUBATION",inactive; negative
same,mutagenic call,[4],inactive; negative
same,mutagenic call,"Test System: AMES SALMONELLA TYPHIMURIUM, Strain/Indicator: TA98, Metabolic Activation: RAT, LIVER, S-9, AROCLOR 1254 (10 OR 30%), Method: PREINCUBATION",inactive; negative
same,mutagenic call,"Test System: AMES SALMONELLA TYPHIMURIUM, Strain/Indicator: TA100, Metabolic Activation: HAMSTER, LIVER, S-9, AROCLOR 1254 (10 OR 30%), Method: PREINCUBATION",inactive; negative
same,mutagenic call,[5],inactive; negative
same,mutagenic call,"Test System: AMES SALMONELLA TYPHIMURIUM, Strain/Indicator: TA100, Metabolic Activation: RAT, LIVER, S-9, AROCLOR 1254 (10 OR 30%), Method: PREINCUBATION",inactive; negative
same,mutagenic call,"Test System: AMES SALMONELLA TYPHIMURIUM, Strain/Indicator: TA1535, Metabolic Activation: HAMSTER, LIVER, S-9, AROCLOR 1254 (10 OR 30%), Method: PREINCUBATION",inactive; negative
same,mutagenic call,[6],inactive; negative
same,mutagenic call,"Test System: AMES SALMONELLA TYPHIMURIUM, Strain/Indicator: TA1535, Metabolic Activation: RAT, LIVER, S-9, AROCLOR 1254 (10 OR 30%), Method: PREINCUBATION",inactive; negative
ClCc1ccc(CCl)cc1,mutagenic call,[1],inactive; negative
Cc1cc(-c2ccccc2)cc(C)c1N,mutagenic call,[1],inactive; negative
same,mutagenic call,"Test System: AMES SALMONELLA TYPHIMURIUM, Strain/Indicator: TA98, Metabolic Activation: RAT LIVER S-9, AROCLOR, Method: STANDARD PLATE",active; positive
same,mutagenic call,[2],inactive; negative
same,mutagenic call,"Test System: AMES SALMONELLA TYPHIMURIUM, Strain/Indicator: TA100, Metabolic Activation: RAT LIVER S-9, AROCLOR, Method: STANDARD PLATE",active; positive
Cc1cc(O)c(C(C)(C)C)cc1Sc1cc(C(C)(C)C)c(O)cc1C,mutagenic call,"Test System: AMES SALMONELLA TYPHIMURIUM, Strain/Indicator: TA98, Metabolic Activation: HAMSTER, LIVER, S-9, AROCLOR 1254 (10%), Method: PREINCUBATION",inactive; negative
same,mutagenic call,[4],inactive; negative
same,mutagenic call,[1],inactive; negative
same,mutagenic call,"Test System: AMES SALMONELLA TYPHIMURIUM, Strain/Indicator: TA98, Metabolic Activation: RAT, LIVER, S-9, AROCLOR 1254 (10%), Method: PREINCUBATION",inactive; negative
same,mutagenic call,"Test System: AMES SALMONELLA TYPHIMURIUM, Strain/Indicator: TA98, Metabolic Activation: S-9, Method: STANDARD PLATE",inactive; negative
same,mutagenic call,"Test System: AMES SALMONELLA TYPHIMURIUM, Strain/Indicator: TA100, Metabolic Activation: HAMSTER, LIVER, S-9, AROCLOR 1254 (10%), Method: PREINCUBATION",inactive; negative
same,mutagenic call,[5],inactive; negative
same,mutagenic call,[2],inactive; negative
same,mutagenic call,"Test System: AMES SALMONELLA TYPHIMURIUM, Strain/Indicator: TA100, Metabolic Activation: RAT, LIVER, S-9, AROCLOR 1254 (10%), Method: PREINCUBATION",inactive; negative
same,mutagenic call,"Test System: AMES SALMONELLA TYPHIMURIUM, Strain/Indicator: TA100, Metabolic Activation: S-9, Method: STANDARD PLATE",inactive; negative
same,mutagenic call,"Test System: AMES SALMONELLA TYPHIMURIUM, Strain/Indicator: TA1535, Metabolic Activation: HAMSTER, LIVER, S-9, AROCLOR 1254 (10%), Method: PREINCUBATION",inactive; negative
same,mutagenic call,[6],inactive; negative
same,mutagenic call,"Test System: AMES SALMONELLA TYPHIMURIUM, Strain/Indicator: TA1535, Metabolic Activation: RAT, LIVER, S-9, AROCLOR 1254 (10%), Method: PREINCUBATION",inactive; negative
same,mutagenic call,"Test System: AMES SALMONELLA TYPHIMURIUM, Strain/Indicator: TA1537, Metabolic Activation: HAMSTER, LIVER, S-9, AROCLOR 1254 (10%), Method: PREINCUBATION",inactive; negative
same,mutagenic call,"Test System: AMES SALMONELLA TYPHIMURIUM, Strain/Indicator: TA1537, Metabolic Activation: NONE, Method: PREINCUBATION",inactive; negative
same,mutagenic call,"Test System: AMES SALMONELLA TYPHIMURIUM, Strain/Indicator: TA1537, Metabolic Activation: RAT, LIVER, S-9, AROCLOR 1254 (10%), Method: PREINCUBATION",inactive; negative
c1ccc(-c2ccc(OCC3CO3)cc2)cc1 (centres undefined),mutagenic call,[2],active; positive
same,mutagenic call,[3],active; positive
